This is an account of results in patent publication US8633166B2, “Methicillin-resistant Staphylococcus aureus active metabolites” (priority 2009, dated 2014).

Structures are written as SMILES. In brackets after ≈: the same amount, converted by molar mass.

One test concerns streptococci. Kind of test: In vitro MIC, streptococci. The class given is cell-based, Streptococcus. The conditions noted are these: highest concentrations considered for MIC readings. On the procedure: (§1) All test articles were dissolved in DMSO. Stock solutions were prepared at 40-fold the highest concentration in the test plate. The final concentration of DMSO in the test system was 2.5%.
(§2) The medium employed for the MIC assay was Mueller Hinton II Broth (MHB II-Becton Dickinson, #212322, Lot #9044411) for most of the organisms. MHB II was supplemented with 2% lysed horse blood (Cleveland Scientific Lot #22299-1) to accommodate the growth of Streptococcus pneumoniae, Streptococcus pyogenes and Streptococcus agalactiae. The media were prepared at 102.5% the normal weight to offset the dilution created by the addition of 5 μL drug solution to each well of the microdilution panels. […]
(§3) Plates were stacked 3 high, covered with a lid on the top plate, placed in plastic bags, and incubated at 35° C. for approximately 18 hours for most of the isolates. The Streptococcus plates were read after 20 hours of incubation. […] The MIC was read and recorded as the lowest concentration of drug that inhibited visible growth of the organism.

The subject of another test is enterococci. Kind of test: In vitro MIC, for enterococci. In kind it is cell-based. The conditions noted are these: E. faecalis and E. faecium, vancomycin-susceptible and vancomycin-resistant strains. As to the method:
as §1, §2, §3

The subject of the next test is Streptococcus pyogenes. Kind of test: In vitro MIC, broth microdilution (CLSI). The class given is cell-based. The conditions noted are these: MHB II with 2% lysed horse blood. On the procedure: as §1
(§4) The medium employed for the MIC assay was Mueller Hinton II Broth (MHB II-Becton Dickinson, #212322, Lot #9044411) for most of the organisms. MHB II was supplemented with 2% lysed horse blood (Cleveland Scientific Lot #22299-1) to accommodate the growth of Streptococcus pneumoniae, Streptococcus pyogenes and Streptococcus agalactiae. The media were prepared at 102.5% the normal weight to offset the dilution created by the addition of 5 μL drug solution to each well of the microdilution panels.
(§5) The MIC assay method followed the procedure described by the Clinical and Laboratory Standards Institute (see Clinical and Laboratory Standards Institute. Methods for Dilution Antimicrobial, Susceptibility Tests for Bacteria That Grow Aerobically; Approved Standard—Eighth Edition. CLSI document M07-A8 [ISBN 1-56238-689-1]. Clinical and Laboratory, Standards Institute, 940 West Valley Road, Suite 1400, Wayne, Pa. 19087-1898 USA, 2009) and employed automated liquid handlers to conduct serial dilutions and liquid transfers. Automated liquid handlers included the Multidrop 384 (Labsystems, Helsinki, Finland), Biomek 2000 and Multimek 96 (Beckman Coulter, Fullerton Calif.).
(§6) The wells of Columns 2-12 of standard 96-well microdilution plates (Falcon 3918) were filled with 150 μL of DMSO on the Multidrop 384. The drugs (300 μL) were dispensed into Column 1 of the appropriate row in these plates. These would become the mother plates from which the test plates (daughter plates) were prepared. The Biomek 2000 completed serial transfers through Column 11 in the mother plates. The wells of Column 12 contained no drug and were the organism growth control wells in the daughter plates. The daughter plates were loaded with 185 μL of the appropriate test media (described above) using the Multidrop 384. The daughter plates were prepared on the Multimek 96 instrument which transferred 5 μL of drug solution from each well of a mother plate to each corresponding well of each daughter plate in a single step. Therefore, the test agents were maintained in solution in 100% DMSO up until the point of being added to the final test medium.
(§7) Standardized inoculum of each organism was prepared per CLSI methods (See Clinical and Laboratory Standards Institute. Performance Standards for Antimicrobial Susceptibility Testing; Nineteenth Informational Supplement. CLSI document M100-S19 [ISBN 1-56238-690-5]. Clinical and Laboratory Standards Institute, 940 West Valley Road, Suite 1400, Wayne, Pa. 19087-1898 USA, 2009.). Suspensions were prepared in MHB to equal the turbidity of a 0.5 McFarland standard. The suspensions were diluted 1:9 in broth appropriate to the organism. The inoculum for each organism was dispensed into sterile reservoirs divided by width (Beckman Coulter), and the Biomek 2000 was used to inoculate the plates. Daughter plates were placed on the Biomek 2000 work surface reversed so that inoculation took place from low to high drug concentration. The Biomek 2000 delivered 10 μL of standardized inoculum into each well. This yielded a final cell concentration in the daughter plates of approximately 5×10^5 colony-forming-units/mL. Thus, the wells of the daughter plates ultimately contained 185 μL of broth, 5 μL of drug solution, and 10 μL of bacterial inoculum. The final concentration of DMSO in the assay plate was 2.5%.
(§8) Plates were stacked 3 high, covered with a lid on the top plate, placed in plastic bags, and incubated at 35° C. for approximately 18 hours for most of the isolates. The Streptococcus plates were read after 20 hours of incubation. The microplates were viewed from the bottom using a plate viewer. […] The MIC was read and recorded as the lowest concentration of drug that inhibited visible growth of the organism.
In general terms: Broth dilution looks for growth in wells or tubes with falling amounts of substance.

The subject of a further test is Streptococcus pneumoniae. Kind of test: In vitro MIC, broth microdilution (CLSI). In kind it is cell-based. The note with it: MHB II with 2% lysed horse blood. As to the method:
as §1, §4, §5, §6, §7, §8

The test system of the next test is Streptococcus agalactiae. Kind of test: In vitro MIC, broth microdilution (CLSI). In kind it is cell-based. The note with it: MHB II with 2% lysed horse blood. As to the method:
as §1, §4, §5, §6, §7, §8

Another test concerns Enterococcus faecalis. Kind of test: In vitro MIC, broth microdilution (CLSI). The class given is cell-based. On the procedure: as §1, §4, §5, §6, §7, §8
In test [1] the test system is Staphylococcus epidermidis. Kind of test: In vitro MIC, broth microdilution (CLSI). In kind it is cell-based. On the procedure:
as §1, §4, §5, §6, §7, §8

The next test relates to Staphylococcus aureus. Kind of test: In vitro MIC, broth microdilution (CLSI). In kind it is cell-based. On the procedure: as §1, §4, §5, §6, §7, §8
For a further test, the system named is Enterococcus faecium. Kind of test: In vitro MIC, broth microdilution (CLSI). The class given is cell-based. As to the method: as §1, §4, §5, §6, §7, §8
The test system of test [2] is methicillin resistant Staphylococcus aureus (MRSA). Kind of test: In vitro antimicrobial evaluation, modified CLSI (formerly NCCLS) method. The class given is cell-based. The note with it: IC50 from percent growth versus test concentration; values only in FIG. 1. On the procedure:
The in vitro antimicrobial activity for the isolated glycosides is represented in FIG. 1. A modified version of CLSI (formerly NCCLS) method was used for the in vitro evaluation of test samples. Duplicate samples were transferred to 96-well microplates after diluting with 0.9% saline. The microbial cell suspensions were to give the desired target inocula after addition to the samples. Media and solvent controls were included in each assay. The IC50 was calculated by plotting percent growth versus test concentration.

In test [3] the test system is Methicillin-resistant Staphylococcus aureus. Kind of test: In vivo MRSA assay, thigh infection in a murine model. Set-up: species or system Mice (CD-1). The note with it: vancomycin treated animals. On the procedure: The in vivo antimicrobial activity for the isolated glycosides is represented in FIGS. 2A and 2B. Mice (CD-1) were purchased from Harlan Inc. and acclimatized up to 5 days before use. Food and water were available ad libitum throughout the study. They were rendered neutropenic by two injections of cyclophosphamide (100 mg/kg) given intraperitoneally, one and four days before infection. A volume of 50 uL suspension of Methicillin-resistant Staphylococcus aureus (1.5×10^6 live organisms) was injected intramuscularly (1M) into each of the two rear thighs. Each thigh was considered as an individual data point (total of 4 data points for each treatment). These mice were randomly distributed into the control or treatment groups (n=2/group).
Treatment with the test compound (1) was initiated via the intraperitoneal route 2 hrs after thigh inoculation. Control animals were concurrently administered saline (mock treatment) or vancomycin in the same volume as those receiving compound (1). All animals were sacrificed after 48 hours by CO2 inhalation. Immediately following sacrifice, thigh tissue was collected from the animals, weighed, and homogenized in 5.0 mL of saline. Thigh muscle homogenate was then processed for microbiological assay to determine the number of MRSA cfu per gram of muscle tissue.

Another test concerns MRSA. The note with it: background statement; cited from earlier work.

A word on the MIC: it is the lowest concentration that inhibits growth of the organism. A low value points to a more susceptible organism. In the case of `C[C@@H]1O[C@@H](Oc2c(-c3ccc(O)cc3)oc3cc(O)cc(O)c3c2=O)[C@H](OC(=O)/C=C\c2ccc(O)cc2)[C@H](OC(=O)/C=C\c2ccc(O)cc2)[C@H]1O` [Compound 4, kaempferol 3-O-α-L-(2″,3″-di-Z-p-coumaroyl)rhamnoside], the “activity against the streptococci” value with streptococci is given as “Neither compound was active”. Also, in the test on enterococci, the “activity against enterococci” value was “inhibited multiple strains”. The MIC in the test on Streptococcus pyogenes (MMX 718, CHP) was greater than 32 µg/mL; in the test on Streptococcus pyogenes (MMX 2572, UCLA), greater than 32 µg/mL; in the test on Streptococcus pyogenes (MMX 3928, Mt. Sinai) it was greater than 32 µg/mL; in the test with Streptococcus pneumoniae (MMX 748, PRSP, CHP), greater than 32 µg/mL; with Streptococcus pneumoniae (MMX 866, PSSP, CHP), greater than 32 µg/mL; against Streptococcus pneumoniae (MMX 1195, CLSI QC, ATCC 49619), greater than 32 µg/mL. In addition, the MIC against Streptococcus pneumoniae (MMX 3130, PSSP, UCLA) is greater than 32 µg/mL; against Streptococcus pneumoniae (MMX 3160, PRSP, UCLA) it was greater than 32 µg/mL; against Streptococcus pneumoniae (MMX 3937, PSSP, Mt. Sinai), greater than 32 µg/mL; with Streptococcus pneumoniae (MMX 3953, PRSP, Mt. Sinai), greater than 32 µg/mL; in the test on Streptococcus agalactiae (MMX 3743, Mt. Sinai), greater than 32 µg/mL; in the test with Streptococcus agalactiae (MMX 4093, UCLA), greater than 32 µg/mL. The MIC against Streptococcus agalactiae (MMX 4106, CHP) was greater than 32 µg/mL; against Enterococcus faecalis (MMX 101, CLSI QC, ATCC 29212), 8 µg/mL (≈ 11 µM); in the test on Enterococcus faecalis (MMX 742, VSE, CHP) it was greater than 8 µg/mL; with Enterococcus faecalis (MMX 3199, VSE, UCLA), greater than 8 µg/mL; against Enterococcus faecalis (MMX 3821, VRE, Mt. Sinai) it was 8 µg/mL (≈ 11 µM); with Enterococcus faecalis (MMX 3896, VSE, Mt. Sinai), greater than 8 µg/mL. In addition, the MIC against Enterococcus faecalis (MMX 4131, VRE, CHP) was 4 µg/mL (≈ 5.52 µM); against Enterococcus faecalis (MMX 4160, VRE, UCLA), 8 µg/mL (≈ 11 µM); in test [1] (MMX 762, MRSE, CHP) it was greater than 8 µg/mL; in [1] (MMX 826, MRSE, UCLA), greater than 8 µg/mL; in [1] (MMX 835, MSSE, UCLA) it was 8 µg/mL (≈ 11 µM); in test [1] (MMX 3703, MSSE, CHP), 8 µg/mL (≈ 11 µM). In addition, the MIC in test [1] (MMX 3752, MRSE, Mt. Sinai) is greater than 8 µg/mL; in [1] (MMX 3763, MSSE, Mt. Sinai), 8 µg/mL (≈ 11 µM); in the test on Staphylococcus aureus (MMX 100, CLSI QC, ATCC 29213) it was greater than 8 µg/mL; in the test on Staphylococcus aureus (MMX 753, MSSA, CHP) it was greater than 8 µg/mL; against Staphylococcus aureus (MMX 758, MRSA, CHP) it was greater than 8 µg/mL; against Staphylococcus aureus (MMX 2055, MRSA, UCLA), greater than 8 µg/mL. In addition, the MIC in the test on Staphylococcus aureus (MMX 2063, MSSA, UCLA) was greater than 8 µg/mL; with Staphylococcus aureus (MMX 3856, MSSA, Mt. Sinai), greater than 8 µg/mL; in the test with Staphylococcus aureus (MMX 3894, MRSA, Mt. Sinai), greater than 8 µg/mL; with Enterococcus faecium (MMX 0799, VSE, CHP), greater than 8 µg/mL; against Enterococcus faecium (MMX 0845, VSE, UCLA), 4 µg/mL (≈ 5.52 µM); in the test on Enterococcus faecium (MMX 1238, VRE, Mt. Sinai) it was 4 µg/mL (≈ 5.52 µM). The MIC against Enterococcus faecium (MMX 1259, VSE, Mt. Sinai) is greater than 8 µg/mL; with Enterococcus faecium (MMX 4024, VRE, CHP) it was greater than 8 µg/mL; in the test with Enterococcus faecium (MMX 4048, VRE, UCLA) it was greater than 8 µg/mL. Further, the “in vitro activity (rank among the four compounds)” value in [2] is given as “most potent in vitro activity”.

For `CN[C@H](CC(C)C)C(=O)N[C@H]1C(=O)N[C@@H](CC(N)=O)C(=O)N[C@H]2C(=O)N[C@H]3C(=O)N[C@H](C(=O)N[C@H](C(=O)O)c4cc(O)cc(O)c4-c4cc3ccc4O)[C@H](O)c3ccc(c(Cl)c3)Oc3cc2cc(c3O[C@@H]2O[C@H](CO)[C@@H](O)[C@H](O)[C@H]2O[C@H]2C[C@](C)(N)[C@H](O)[C@H](C)O2)Oc2ccc(cc2Cl)[C@H]1O` [Vancomycin, reference compound], the “reduction compared to vehicle control” value in test [3] was found to be 72%. In addition, the “number of MRSA isolated from muscle tissue” value in [3] (intraperitoneal, 48 hours, neutropenic mice) is reported as 2.2×10^7 g of tissue. In addition, the success rate with MRSA was 35-57%.
